Structures are written as SMILES. pIC50: −log10 of the molar value.

We go through three compounds from US12466812B2, “Pyridinyltriazine derivative having protein kinase inhibitory activity, and pharmaceutical composition for preventing, ameliorating, or treating cancer comprising same” (KOREA INSTITUTE OF SCIENCE AND TECHNOLOGY, priority 2019, dated 2025).

Series [1] deals with AN3-CA, a uterine cancer cell line. In words: Inhibitory activity against cancer cell proliferation (Experimental Example 2). It counts as cell-based. The note with it: Homo sapiens, Table 2.
For another series, the target named is FGFR2 mutant (N549H) (Homo sapiens, UniProt P21802, N549H). In words: Pan-FGFR mutant enzymatic activity. It counts as biochemical. The note with it: mutant enzyme. How it is done:
(§1) The inhibitory activity against pan-FGFR mutants of the compounds synthesized in Examples 1, 8, 13, 22, and 24 was measured, the inhibitory activity on each of enzymatic activity and cellular activity was evaluated, and the results are shown in Tables 3 and 4 below.

A further series addresses FGFR2 mutant (V564F) (Homo sapiens, UniProt P21802, V564F). In words: Pan-FGFR mutant enzymatic activity. In kind it is biochemical. The note with it: mutant enzyme. How it is done: as §1
The target in another series is FGFR3 mutant (K650E) (Homo sapiens, UniProt P22607, K650E). Nature of the series: Pan-FGFR mutant enzymatic activity. It counts as biochemical. To be noted: mutant enzyme. The procedure:
as §1

Another series concerns the target FGFR3 mutant (K650M) (Homo sapiens, UniProt P22607, K650M). Nature of the series: Pan-FGFR mutant enzymatic activity. In kind it is biochemical. To be noted: mutant enzyme. How it is done: as §1
The next series deals with FGFR3 mutant (V555M) (Homo sapiens, UniProt P22607, V555M). Nature of the series: Pan-FGFR mutant enzymatic activity. It counts as biochemical. The note with it: mutant enzyme. How it is done: as §1
The test system of another series is AN3-CA. In words: Pan-FGFR mutant cellular activity. In kind it is cell-based. To be noted: Homo sapiens, mutant cell, Table 4, read-out: GI50, AN3-CA (breast cancer cell line). How it is done:
as §1

Series [2] deals with J82 (bladder cancer cell line). Nature of the series: Pan-FGFR mutant cellular activity. It counts as cell-based. To be noted: Table 4. The procedure:
as §1

The subject of series [3] is KMS-11 (myeloma cell line). In words: Pan-FGFR mutant cellular activity. In kind it is cell-based. The note with it: Homo sapiens, Table 4. How it is done: as §1
The subject of series [4] is UMUC3 (bladder cancer cell line). In words: Pan-FGFR mutant cellular activity. It counts as cell-based. To be noted: Homo sapiens, Table 4. How it is done:
as §1

Another series concerns the target T1, CYP1A2 (Homo sapiens, UniProt P05177).
T1 sequence (P05177 1-516): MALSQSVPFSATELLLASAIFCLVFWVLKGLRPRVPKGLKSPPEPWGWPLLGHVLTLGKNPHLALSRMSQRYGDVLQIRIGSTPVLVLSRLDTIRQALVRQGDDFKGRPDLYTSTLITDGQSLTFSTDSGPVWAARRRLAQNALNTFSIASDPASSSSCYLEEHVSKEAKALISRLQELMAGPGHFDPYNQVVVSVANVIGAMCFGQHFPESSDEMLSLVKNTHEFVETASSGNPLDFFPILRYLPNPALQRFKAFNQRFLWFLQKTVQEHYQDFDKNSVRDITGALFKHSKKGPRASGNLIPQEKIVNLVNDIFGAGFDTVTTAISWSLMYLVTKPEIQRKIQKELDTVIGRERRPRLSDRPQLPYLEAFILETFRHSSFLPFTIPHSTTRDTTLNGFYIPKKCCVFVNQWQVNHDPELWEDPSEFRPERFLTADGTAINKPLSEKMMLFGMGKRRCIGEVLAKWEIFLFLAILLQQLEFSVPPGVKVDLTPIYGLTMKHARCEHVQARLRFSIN
Nature of the series: Inhibitory activity against CYP metabolic enzyme. It counts as in vitro ADME. The procedure:
(§2) In order to determine whether or not there is a possibility that the compounds synthesized in Examples 1, 22, and 24 of the present invention can cause side effects of drug interaction, the rate (%) of inhibition against 5 major metabolic enzymes (CYP1A2, CYP2C9, CYP2C19, CYP2D6, and CYP3A4) among CYPs (cytochrome P450), which are enzymes involved in oxidative metabolism of drugs, was measured. […] That is, it can be seen that the compound of the present invention has a low possibility of causing side effects of drug interaction.

A further series addresses CYP2C19 (Homo sapiens, UniProt P33261). In words: Inhibitory activity against CYP metabolic enzyme. It counts as in vitro ADME. How it is done:
as §2

Another series concerns the target CYP2D6 (Homo sapiens, UniProt P10635). Nature of the series: Inhibitory activity against CYP metabolic enzyme. In kind it is in vitro ADME. The procedure:
as §2

The target in another series is CYP3A4 (Homo sapiens, UniProt P08684). In words: Inhibitory activity against CYP metabolic enzyme. In kind it is in vitro ADME. How it is done: as §2
Series [5] can be described thus: Microsomal stability. In kind it is in vitro ADME. The note with it: human liver microsomes, based on sample taken at 0 minutes. For orientation: Liver microsomes are vesicles of endoplasmic reticulum, rich in cytochrome P450 enzymes.
The nature of series [6]: Microsomal stability. To be noted: dog liver microsomes, based on sample taken at 0 minutes. It counts as in vitro ADME.
Series [7] in a line: Microsomal stability. In kind it is in vitro ADME. To be noted: rat liver microsomes, based on sample taken at 0 minutes.
The nature of series [8]: Microsomal stability. To be noted: mouse liver microsomes, based on sample taken at 0 minutes. It counts as in vitro ADME.
A short description of series [9]: In-vivo PK profile (mouse PK/ICR mice). To be noted: plasma, ICR mice, PO 10 mg/kg.
In another series the target is CYP2C9 (Homo sapiens, UniProt P11712). Nature of the series: Inhibitory activity against CYP metabolic enzyme. In kind it is in vitro ADME. How it is done:
as §2

The next series deals with FGFR3 (Homo sapiens, UniProt P22607). The note with it: J. Med. Chem. 2011, 54:7066-7083; cited from earlier work.
Series [10] concerns RT112 bladder cancer cell line. The note with it: J. Med. Chem. 2011, 54:7066-7083; cited from earlier work.

FGFR2 mutant (V564F), sequence (P21802 22-821 V564F): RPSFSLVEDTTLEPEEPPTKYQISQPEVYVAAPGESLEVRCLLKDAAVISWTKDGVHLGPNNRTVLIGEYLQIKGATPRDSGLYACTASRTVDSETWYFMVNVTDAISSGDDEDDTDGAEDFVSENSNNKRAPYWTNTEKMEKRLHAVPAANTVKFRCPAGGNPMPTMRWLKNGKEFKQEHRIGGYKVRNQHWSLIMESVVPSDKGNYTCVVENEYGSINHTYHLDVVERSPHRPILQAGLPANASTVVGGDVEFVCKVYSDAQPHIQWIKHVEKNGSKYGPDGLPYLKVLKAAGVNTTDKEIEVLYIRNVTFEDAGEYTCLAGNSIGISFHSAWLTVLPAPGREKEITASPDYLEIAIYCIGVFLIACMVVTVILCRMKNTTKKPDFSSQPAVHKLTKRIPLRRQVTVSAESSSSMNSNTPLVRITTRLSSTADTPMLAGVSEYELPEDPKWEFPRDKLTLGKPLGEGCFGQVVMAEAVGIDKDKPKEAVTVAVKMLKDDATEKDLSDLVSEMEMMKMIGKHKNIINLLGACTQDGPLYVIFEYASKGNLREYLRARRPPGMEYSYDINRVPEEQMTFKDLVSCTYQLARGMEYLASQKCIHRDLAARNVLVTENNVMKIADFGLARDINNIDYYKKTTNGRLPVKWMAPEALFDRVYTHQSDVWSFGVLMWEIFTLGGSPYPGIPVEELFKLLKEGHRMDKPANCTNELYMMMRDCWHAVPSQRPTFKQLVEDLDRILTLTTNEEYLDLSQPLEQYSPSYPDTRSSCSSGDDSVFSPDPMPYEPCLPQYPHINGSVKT
CYP2C19, sequence (P33261 whole entry): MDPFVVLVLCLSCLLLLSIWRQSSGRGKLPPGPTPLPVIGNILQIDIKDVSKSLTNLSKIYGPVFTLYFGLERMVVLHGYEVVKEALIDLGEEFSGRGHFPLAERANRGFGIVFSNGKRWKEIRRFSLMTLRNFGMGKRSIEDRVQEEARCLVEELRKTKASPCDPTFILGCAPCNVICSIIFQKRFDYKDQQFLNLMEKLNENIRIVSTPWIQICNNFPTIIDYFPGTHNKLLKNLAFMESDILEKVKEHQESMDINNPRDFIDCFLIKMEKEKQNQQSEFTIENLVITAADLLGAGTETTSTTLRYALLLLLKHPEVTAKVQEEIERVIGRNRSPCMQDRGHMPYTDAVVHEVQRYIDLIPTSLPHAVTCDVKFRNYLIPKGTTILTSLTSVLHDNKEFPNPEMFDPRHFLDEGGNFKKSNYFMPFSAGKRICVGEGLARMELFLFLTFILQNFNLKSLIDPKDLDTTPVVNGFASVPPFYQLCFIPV
FGFR3 mutant (V555M), sequence (P22607 23-806 V555M): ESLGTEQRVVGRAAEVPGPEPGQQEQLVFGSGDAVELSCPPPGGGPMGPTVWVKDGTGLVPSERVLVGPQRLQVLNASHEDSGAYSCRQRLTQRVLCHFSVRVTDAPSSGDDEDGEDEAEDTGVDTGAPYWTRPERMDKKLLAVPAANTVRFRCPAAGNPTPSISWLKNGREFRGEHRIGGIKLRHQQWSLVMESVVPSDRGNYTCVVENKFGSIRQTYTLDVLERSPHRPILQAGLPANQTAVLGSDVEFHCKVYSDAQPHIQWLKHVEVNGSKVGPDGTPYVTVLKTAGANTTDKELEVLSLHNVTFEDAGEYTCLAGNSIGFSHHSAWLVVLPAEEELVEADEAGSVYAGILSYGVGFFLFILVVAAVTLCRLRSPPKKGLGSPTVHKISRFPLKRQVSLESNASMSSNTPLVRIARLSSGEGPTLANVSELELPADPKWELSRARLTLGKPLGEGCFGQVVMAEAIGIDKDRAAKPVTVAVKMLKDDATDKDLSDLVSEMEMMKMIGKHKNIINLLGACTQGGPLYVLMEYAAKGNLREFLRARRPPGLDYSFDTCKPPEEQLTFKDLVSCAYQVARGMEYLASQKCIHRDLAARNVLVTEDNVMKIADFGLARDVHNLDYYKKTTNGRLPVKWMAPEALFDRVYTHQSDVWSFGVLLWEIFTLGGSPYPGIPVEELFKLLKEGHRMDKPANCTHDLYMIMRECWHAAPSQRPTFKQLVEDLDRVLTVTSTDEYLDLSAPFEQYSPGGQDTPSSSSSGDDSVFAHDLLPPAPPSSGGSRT
FGFR2 mutant (N549H), sequence (P21802 22-821 N549H): as the sequence (P21802 22-821 V564F) above, with N528H, F543V counted along it
CYP3A4, sequence (P08684 whole entry): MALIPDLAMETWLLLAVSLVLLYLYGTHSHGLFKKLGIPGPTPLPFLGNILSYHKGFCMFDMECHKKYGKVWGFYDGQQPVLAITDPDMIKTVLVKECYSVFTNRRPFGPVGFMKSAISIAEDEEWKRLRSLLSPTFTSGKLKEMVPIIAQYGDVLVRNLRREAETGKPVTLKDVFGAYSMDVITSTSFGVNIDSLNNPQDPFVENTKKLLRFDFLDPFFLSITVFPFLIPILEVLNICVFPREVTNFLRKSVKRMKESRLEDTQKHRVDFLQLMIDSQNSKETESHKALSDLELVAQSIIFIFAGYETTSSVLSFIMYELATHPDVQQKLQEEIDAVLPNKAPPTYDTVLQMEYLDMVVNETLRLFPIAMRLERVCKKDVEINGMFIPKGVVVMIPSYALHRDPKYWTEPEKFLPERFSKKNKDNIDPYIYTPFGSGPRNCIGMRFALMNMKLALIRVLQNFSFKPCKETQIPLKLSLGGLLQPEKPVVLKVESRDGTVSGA
FGFR3 mutant (K650M), sequence (P22607 23-806 K650M): as the sequence (P22607 23-806 V555M) above, with M533V, K628M counted along it
FGFR3 mutant (K650E), sequence (P22607 23-806 K650E): as the sequence (P22607 23-806 V555M) above, with M533V, K628E counted along it
CYP2D6, sequence (P10635 whole entry): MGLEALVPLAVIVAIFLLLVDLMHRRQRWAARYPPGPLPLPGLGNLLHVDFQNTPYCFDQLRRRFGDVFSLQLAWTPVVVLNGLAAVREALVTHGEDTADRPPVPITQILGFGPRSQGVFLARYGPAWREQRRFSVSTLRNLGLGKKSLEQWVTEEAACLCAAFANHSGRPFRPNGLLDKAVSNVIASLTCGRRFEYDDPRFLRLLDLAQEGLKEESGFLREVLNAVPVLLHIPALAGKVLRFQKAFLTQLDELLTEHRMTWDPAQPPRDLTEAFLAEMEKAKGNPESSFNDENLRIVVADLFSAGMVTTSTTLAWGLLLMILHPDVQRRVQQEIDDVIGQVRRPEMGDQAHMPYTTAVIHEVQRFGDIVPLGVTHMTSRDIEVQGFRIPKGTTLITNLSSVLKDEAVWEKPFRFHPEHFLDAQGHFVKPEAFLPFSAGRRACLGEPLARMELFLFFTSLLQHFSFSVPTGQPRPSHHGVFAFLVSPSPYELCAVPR
FGFR3, sequence (P22607 23-806): as the sequence (P22607 23-806 V555M) above, with M533V counted along it
CYP2C9, sequence (P11712 whole entry): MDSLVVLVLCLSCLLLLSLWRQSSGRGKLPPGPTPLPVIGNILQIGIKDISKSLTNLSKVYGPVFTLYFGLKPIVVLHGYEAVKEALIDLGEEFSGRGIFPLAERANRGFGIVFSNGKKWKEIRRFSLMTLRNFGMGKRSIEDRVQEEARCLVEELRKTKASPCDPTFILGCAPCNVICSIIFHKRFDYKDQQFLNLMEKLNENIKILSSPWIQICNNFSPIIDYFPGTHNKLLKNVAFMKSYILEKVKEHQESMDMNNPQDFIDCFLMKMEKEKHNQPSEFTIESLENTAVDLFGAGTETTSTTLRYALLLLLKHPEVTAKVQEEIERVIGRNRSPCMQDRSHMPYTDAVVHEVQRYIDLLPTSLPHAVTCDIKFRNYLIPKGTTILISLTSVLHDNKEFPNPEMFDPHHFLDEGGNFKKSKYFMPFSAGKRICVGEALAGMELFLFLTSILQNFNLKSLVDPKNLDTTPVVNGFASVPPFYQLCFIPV

Broadly, the GI50 is the concentration that inhibits growth by half. As usually defined, the pIC50 is the IC50 on a negative log10 scale, so that one unit is a factor of ten. High values mean a small IC50, low ones a large IC50. For orientation: Cmax means the highest concentration seen after dosing. Broadly, the MRT inf is a mean duration of stay, worked out from the concentration-time curve. One may read the Tmax as the time at which the peak concentration occurs. One may read the half-life as the time in which the quantity being followed falls by half. A lower half-life goes with rapid decline. As to `COc1cc(OC)c(Cl)c(Nc2ncccc2-c2ncnc(Nc3cnn(C4CCNCC4)c3)n2)c1Cl` [Example 24, 4-(2-((2,6-dichloro-3,5-dimethoxyphenyl)amino)pyridin-3-yl)-N-(1-(piperidin-4-yl)-1H-pyrazol-4-yl)-1,3,5-triazin-2-amine], the GI50 in series [1] is < 1000 nM; with AN3-CA, < 1000 nM; in series [2], 1000 to 10000 nM; in series [3] it was < 1000 nM; in series [4], 1000 to 10000 nM. The negative logarithm of the IC50 (pIC50) was > 7.00 on FGFR2 mutant (N549H); 6.00 to 7.00 on FGFR2 mutant (V564F); > 7.00 against FGFR3 mutant (K650E); > 7.00 against FGFR3 mutant (K650M); 6.00 to 7.00 at FGFR3 mutant (V555M). Also, at CYP1A2, the “rate (%) of inhibition, CYP1A2” value worked out at 72.8%. For the same compound, the “rate (%) of inhibition, CYP2C19” value on CYP2C19 was found to be 51.0%. In addition, the “rate (%) of inhibition, CYP2D6” value at CYP2D6 was >100%. For the same compound, on CYP3A4, the “rate (%) of inhibition, CYP3A4” value worked out at 44.1%. Besides, the “remaining (%) after reaction with the microsome, Human” value in “Microsomal stability [5]” and in “Microsomal stability [5]” (listed as Compound No. 24) was 62.6% each time. For the same compound, the “remaining (%) after reaction with the microsome, Dog” value in the series “Microsomal stability [6]” and in the series “Microsomal stability [6]” (listed as Compound No. 24) was 66.9% throughout. Also, the “remaining (%) after reaction with the microsome, Rat” value was found to be 65.4% in the series “Microsomal stability [7]” and 65.43% in the series “Microsomal stability [7]” (listed as Compound No. 24). Moreover, the “remaining (%) after reaction with the microsome, Mouse” value in “Microsomal stability [8]” and in the series “Microsomal stability [8]” (listed as Compound No. 24) was 62.1% in each case. The Cmax in [9] was found to be 153 ng/mL. The same compound yielded an MRT inf in series [9] of 7.94 h. For the same compound, the Tmax in series [9] was determined as 25.2 min. The half-life in series [9] is 290 min.

Turning to `COc1cc(OC)c(Cl)c(Nc2ncccc2-c2ncnc(Nc3cnn(C4CCN(C(C)C)CC4)c3)n2)c1Cl` [Example 22], the 50% growth inhibitory concentration (GI50) (in series [1]; in the series with AN3-CA; in series [2]; in series [3]; in series [4]) was < 1000 nM in each case. Further, the negative-log IC50 (pIC50) against FGFR2 mutant (N549H) is > 7.00; against FGFR2 mutant (V564F) it was 6.00 to 7.00; at FGFR3 mutant (K650E) it was > 7.00; against FGFR3 mutant (K650M), > 7.00; against FGFR3 mutant (V555M), > 7.00. Also, the “rate (%) of inhibition, CYP1A2” value on CYP1A2 was 75.9%. Besides, the “rate (%) of inhibition, CYP2C19” value on CYP2C19 was 44.6%. The “rate (%) of inhibition, CYP2C9” value on CYP2C9 is recorded as 79.1%. Moreover, at CYP2D6, the “rate (%) of inhibition, CYP2D6” value is 81.0%. Besides, the “rate (%) of inhibition, CYP3A4” value on CYP3A4 came to 17.6%. In addition, the “remaining (%) after reaction with the microsome, Human” value in the series “Microsomal stability [5]” and in “Microsomal stability [5]” (listed as Compound No. 22) was 21.8% throughout. Moreover, the “remaining (%) after reaction with the microsome, Dog” value in “Microsomal stability [6]” and in “Microsomal stability [6]” (listed as Compound No. 22) was 8.3% throughout. Further, the “remaining (%) after reaction with the microsome, Rat” value in “Microsomal stability [7]” and in the series “Microsomal stability [7]” (listed as Compound No. 22) was 7.7% each time. Besides, the “remaining (%) after reaction with the microsome, Mouse” value in the series “Microsomal stability [8]” and in “Microsomal stability [8]” (listed as Compound No. 22) was 11.5% throughout.

Turning to `CCN1CCN(c2ccc(Nc3cc(N(C)C(=O)Nc4c(Cl)c(OC)cc(OC)c4Cl)ncn3)cc2)CC1` [3-(2,6-dichloro-3,5-dimethoxyphenyl)-1-6-[4-(4-ethyl-piperazin-1-yl)phenylamino]pyrimidine-4-yl-1-methyl urea], the “inhibitory activity against FGFR3” value at FGFR3 is recorded as “selective inhibitory activity”. Also, the “anticancer activity against the RT112 bladder cancer cell line” value in series [10] is given as “effective anticancer activity”.
